The source of these data is article PMC5666424, “Marine-Derived 2-Aminoimidazolone Alkaloids. Leucettamine B-Related Polyandrocarpamines Inhibit Mammalian and Protozoan DYRK & CLK Kinases” (Marine Drugs, 2017).

Molecules are shown by their SMILES. Read-outs that look alike come from different tables or passages of the source.

Some targets named below: CLK2 (Mus musculus, UniProt O35491); CLK4 (Mus musculus, UniProt O35493); CLK3 (Mus musculus, UniProt O35492); CLK1 (Mus musculus, UniProt P22518).
Holding throughout (assay): Protein kinase assay
The target of a further experiment is CDK9/cyclin T (Homo sapiens, UniProt P50750). The note with it: 15 μmol/L ATP.
In the next experiment the target is DYRK1A (Homo sapiens, UniProt Q13627). The class given is biochemical. The note with it: 15 μmol/L ATP.
A further experiment addresses GSK-3α/β. The class given is biochemical, porcine. The following applies: 15 μmol/L ATP.
The target of the next experiment is CDK1/cyclin B. It is filed as biochemical, starfish. The note with it: 15 μmol/L ATP.
A further experiment has as its target CK1δ/ε. It is filed as biochemical, porcine. The note with it: 15 μmol/L ATP. The protocol: (§1) CK1δ/ε (porcine brain, native) and LmCK1 (leishmania major, recombinant, expressed in E. coli as HIS fusion proteins) was assayed as described for CDK1 but in buffer C and using 25 μM CKS peptide ([…]pSAYSITA), a CK1-specific substrate.
In another experiment the target is T1, CDK5/p25 (Homo sapiens, UniProt Q00535).
T1 construct: made in house
It is filed as biochemical. The note with it: 15 μmol/L ATP; read-out: IC50 CDK5/p25.

In a further experiment the target is DYRK1B (Homo sapiens, UniProt Q9Y463). It is filed as biochemical. The following applies: 15 μmol/L ATP.
For another experiment, the target named is T2, DYRK3 (Homo sapiens, UniProt O43781).
T2 sequence (O43781 1-588): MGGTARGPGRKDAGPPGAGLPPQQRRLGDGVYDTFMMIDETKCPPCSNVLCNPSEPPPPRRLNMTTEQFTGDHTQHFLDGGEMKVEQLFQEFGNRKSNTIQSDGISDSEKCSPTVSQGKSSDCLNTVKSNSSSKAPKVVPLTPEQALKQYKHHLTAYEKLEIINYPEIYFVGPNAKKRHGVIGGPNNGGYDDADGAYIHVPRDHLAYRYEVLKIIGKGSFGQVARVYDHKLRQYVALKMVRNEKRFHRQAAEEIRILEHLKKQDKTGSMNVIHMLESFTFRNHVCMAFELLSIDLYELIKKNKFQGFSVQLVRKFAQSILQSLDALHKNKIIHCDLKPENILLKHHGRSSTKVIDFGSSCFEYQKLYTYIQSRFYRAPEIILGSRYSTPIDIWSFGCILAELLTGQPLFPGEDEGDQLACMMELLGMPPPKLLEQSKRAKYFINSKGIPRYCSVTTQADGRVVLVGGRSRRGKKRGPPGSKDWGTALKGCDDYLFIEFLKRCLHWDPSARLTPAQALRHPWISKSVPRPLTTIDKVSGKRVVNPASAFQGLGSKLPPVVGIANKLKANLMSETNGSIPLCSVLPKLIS
The class given is biochemical. The note with it: 15 μmol/L ATP; read-out: IC50 DYRK3.

The next experiment addresses T3, CDK2/cyclin A (Homo sapiens, UniProt P24941).
T3 construct: made in house
It is filed as biochemical. The following applies: 15 μmol/L ATP; read-out: IC50 CDK2/cyclin A.

The next experiment concerns the target T4, DYRK2 (Homo sapiens, UniProt Q92630).
T4 sequence (Q92630 1-601): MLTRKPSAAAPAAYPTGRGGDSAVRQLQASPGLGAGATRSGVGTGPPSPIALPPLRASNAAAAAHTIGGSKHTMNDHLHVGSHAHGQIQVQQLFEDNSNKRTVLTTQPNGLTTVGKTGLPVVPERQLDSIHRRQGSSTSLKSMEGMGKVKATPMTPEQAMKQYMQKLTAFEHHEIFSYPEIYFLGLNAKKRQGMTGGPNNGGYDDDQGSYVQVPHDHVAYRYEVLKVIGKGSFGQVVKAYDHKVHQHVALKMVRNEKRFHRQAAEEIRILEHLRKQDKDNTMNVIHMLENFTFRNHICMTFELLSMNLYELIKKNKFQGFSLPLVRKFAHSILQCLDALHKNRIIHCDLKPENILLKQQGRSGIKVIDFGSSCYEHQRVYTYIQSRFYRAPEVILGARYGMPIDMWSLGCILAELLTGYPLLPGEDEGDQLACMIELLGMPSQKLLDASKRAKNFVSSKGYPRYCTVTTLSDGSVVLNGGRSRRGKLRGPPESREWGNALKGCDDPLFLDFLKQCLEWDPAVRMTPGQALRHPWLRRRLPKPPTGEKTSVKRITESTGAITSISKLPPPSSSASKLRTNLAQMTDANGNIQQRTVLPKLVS
It is filed as biochemical. The following applies: 15 μmol/L ATP; read-out: IC50 DYRK2.

A further experiment deals with T5, PfGSK-3 (Plasmodium falciparum, UniProt O77344).
T5 sequence (O77344 1-440): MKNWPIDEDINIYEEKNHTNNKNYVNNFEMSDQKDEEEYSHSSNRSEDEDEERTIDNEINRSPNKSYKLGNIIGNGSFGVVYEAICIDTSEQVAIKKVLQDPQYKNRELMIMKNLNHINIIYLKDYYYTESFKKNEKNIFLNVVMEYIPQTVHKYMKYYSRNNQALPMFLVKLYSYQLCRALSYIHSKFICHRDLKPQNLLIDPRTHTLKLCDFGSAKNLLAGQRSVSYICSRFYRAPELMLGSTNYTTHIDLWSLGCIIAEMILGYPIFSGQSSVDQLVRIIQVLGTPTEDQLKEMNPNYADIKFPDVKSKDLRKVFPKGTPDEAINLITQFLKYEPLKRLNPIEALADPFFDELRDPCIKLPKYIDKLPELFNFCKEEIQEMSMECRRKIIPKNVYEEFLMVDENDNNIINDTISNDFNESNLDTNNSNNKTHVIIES
The class given is biochemical. The following applies: 15 μmol/L ATP; read-out: IC50 PfGSK-3. The protocol: The parasitic kinase genes (Supplementary Data, Table S3) were optimized for expression in E. coli, synthesized, and cloned in pGEX-6P-1 (GE Healthcare, Sigma-Aldrich, St. Quentin Fallavier, France) with the type II restriction enzymes BamHI and XhoI for glutathione S-transferase (GST) fusion at the N-terminus (GenScript). Plasmids were transformed into chemically competent E. coli BL21(DE3), which were grown overnight at 37 °C in 2 × YT medium containing 100 μg/mL ampicillin. These cultures were used to inoculate 1 L volumes of 2 × YT medium (containing 100 μg/mL ampicillin) in 5 L flasks. The cultures were allowed to grow at 37 °C before the temperature was decreased to 18 °C. At an optical density at 600 nm (OD600) of about 1.0, protein expression was induced overnight at 18 °C with 0.1 mM isopropyl β-D-1-thiogalactopyranoside (IPTG). The bacteria were harvested by centrifugation and were frozen at −20 °C.
Cells were resuspended in a lysis buffer (PBS pH 7.4, 1% NP40, 1 mM DTT, 1 mM EDTA, 1 mM PMSF) in the presence of protease inhibitor cocktail (Roche), and lysozyme was added to 1 mg/mL and incubated 1 h at 4 °C with gentle agitation. Cells were then sonicated on ice before 6 mM MgCl2 and 25 U/mL benzonase (Novagen, Merck Millipore, Fontenay sous Bois, France) were added to degrade nucleic acids and decrease sample viscosity. After centrifugation at 4 °C, the soluble fraction was collected and proteins were bound to Glutathione sepharose 4B beads (GE Healthcare). Beads were washed three times with lysis buffer and once with modified buffer C (25 mM MOPS pH 7.0, 60 mM β-glycerophosphate, 15 mM p-nitrophenylphosphate, 15 mM EGTA, 15 mM MgCl2, 2 mM DTT, 1 mM sodium vanadate). Proteins were eluted with elution buffer (buffer C containing 30 mM reduced glutathione, 15% glycerol, and pH adjusted to 8.5).

The next experiment deals with LmCK1 (Leishmania major, UniProt Q9NHE1). The class given is biochemical. The following applies: 15 μmol/L ATP; read-out: IC50 LmCK1. The protocol:
as §1

[1] abbreviates: read-out: IC50 CLK2, 15 μmol/L ATP.
The mark [2] stands for this setting: read-out: IC50 CLK4, 15 μmol/L ATP.
The mark [3] stands for this setting: read-out: IC50 CLK3, 15 μmol/L ATP.
Where [4] appears, read: read-out: IC50 CLK1, 15 μmol/L ATP.

Sequence of DYRK1B (Q9Y463 whole entry): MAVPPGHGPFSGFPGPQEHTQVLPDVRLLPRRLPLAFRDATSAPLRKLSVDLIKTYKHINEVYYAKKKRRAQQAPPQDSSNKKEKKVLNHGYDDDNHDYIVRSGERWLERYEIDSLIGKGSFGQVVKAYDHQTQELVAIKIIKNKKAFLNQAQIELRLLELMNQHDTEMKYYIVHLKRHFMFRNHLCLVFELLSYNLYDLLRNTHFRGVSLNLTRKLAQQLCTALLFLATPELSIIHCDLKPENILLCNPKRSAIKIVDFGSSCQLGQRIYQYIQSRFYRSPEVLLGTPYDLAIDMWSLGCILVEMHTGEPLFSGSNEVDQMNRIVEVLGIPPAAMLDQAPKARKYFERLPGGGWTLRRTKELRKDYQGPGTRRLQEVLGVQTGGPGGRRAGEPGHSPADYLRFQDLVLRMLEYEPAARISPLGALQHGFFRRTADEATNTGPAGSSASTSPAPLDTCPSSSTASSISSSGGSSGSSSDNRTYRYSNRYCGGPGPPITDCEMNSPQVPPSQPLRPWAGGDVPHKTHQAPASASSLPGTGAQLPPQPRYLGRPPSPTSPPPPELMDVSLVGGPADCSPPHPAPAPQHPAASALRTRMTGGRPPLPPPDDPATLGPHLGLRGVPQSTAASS
T1 sequence (Q00535 whole entry): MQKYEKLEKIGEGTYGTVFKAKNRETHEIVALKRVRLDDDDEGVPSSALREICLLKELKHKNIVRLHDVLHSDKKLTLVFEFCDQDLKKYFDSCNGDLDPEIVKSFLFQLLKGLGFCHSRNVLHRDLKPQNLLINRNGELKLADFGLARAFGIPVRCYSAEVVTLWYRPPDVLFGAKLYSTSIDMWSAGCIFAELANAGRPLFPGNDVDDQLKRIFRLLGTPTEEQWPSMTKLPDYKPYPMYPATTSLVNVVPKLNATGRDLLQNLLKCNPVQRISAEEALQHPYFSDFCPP
T1 sequence (Q15078 99-307 partner limits assumed): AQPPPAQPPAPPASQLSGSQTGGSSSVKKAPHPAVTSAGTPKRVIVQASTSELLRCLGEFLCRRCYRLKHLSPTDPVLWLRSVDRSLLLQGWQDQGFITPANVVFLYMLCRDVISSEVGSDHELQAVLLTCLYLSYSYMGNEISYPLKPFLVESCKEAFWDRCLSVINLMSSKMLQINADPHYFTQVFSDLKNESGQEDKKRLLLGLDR
Sequence of CDK9/cyclin T (P50750 whole entry): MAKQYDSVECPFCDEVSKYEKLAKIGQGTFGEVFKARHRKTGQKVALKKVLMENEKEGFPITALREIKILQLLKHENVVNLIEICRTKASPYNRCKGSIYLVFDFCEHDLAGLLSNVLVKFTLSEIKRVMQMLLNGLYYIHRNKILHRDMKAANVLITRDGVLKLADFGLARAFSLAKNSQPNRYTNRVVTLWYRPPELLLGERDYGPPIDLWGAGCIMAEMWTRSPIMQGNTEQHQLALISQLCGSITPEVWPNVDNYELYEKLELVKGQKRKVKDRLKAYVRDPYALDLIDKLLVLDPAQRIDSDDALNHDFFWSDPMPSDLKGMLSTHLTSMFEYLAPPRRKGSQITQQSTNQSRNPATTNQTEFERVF
Sequence of CDK9/cyclin T (O60563 whole entry partner): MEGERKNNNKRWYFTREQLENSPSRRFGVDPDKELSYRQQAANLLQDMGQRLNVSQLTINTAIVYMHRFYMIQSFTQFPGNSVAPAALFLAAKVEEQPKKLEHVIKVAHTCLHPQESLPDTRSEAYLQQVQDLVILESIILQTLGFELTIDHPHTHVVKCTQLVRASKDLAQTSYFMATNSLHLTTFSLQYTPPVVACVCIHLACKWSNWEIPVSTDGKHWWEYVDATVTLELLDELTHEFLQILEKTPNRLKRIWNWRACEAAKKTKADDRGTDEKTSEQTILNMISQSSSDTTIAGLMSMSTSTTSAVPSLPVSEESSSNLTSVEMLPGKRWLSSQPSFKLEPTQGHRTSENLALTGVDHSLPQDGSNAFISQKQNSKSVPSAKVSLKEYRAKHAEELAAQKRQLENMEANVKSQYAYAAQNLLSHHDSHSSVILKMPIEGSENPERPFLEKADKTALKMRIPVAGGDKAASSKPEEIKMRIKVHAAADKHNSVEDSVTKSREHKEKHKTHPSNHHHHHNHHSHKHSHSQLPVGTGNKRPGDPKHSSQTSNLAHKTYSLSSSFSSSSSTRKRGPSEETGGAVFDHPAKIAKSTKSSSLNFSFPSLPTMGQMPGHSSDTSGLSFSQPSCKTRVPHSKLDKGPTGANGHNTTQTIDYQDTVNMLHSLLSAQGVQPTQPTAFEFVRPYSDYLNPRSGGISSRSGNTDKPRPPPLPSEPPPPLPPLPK
Sequence of CLK3 (O35492 whole entry): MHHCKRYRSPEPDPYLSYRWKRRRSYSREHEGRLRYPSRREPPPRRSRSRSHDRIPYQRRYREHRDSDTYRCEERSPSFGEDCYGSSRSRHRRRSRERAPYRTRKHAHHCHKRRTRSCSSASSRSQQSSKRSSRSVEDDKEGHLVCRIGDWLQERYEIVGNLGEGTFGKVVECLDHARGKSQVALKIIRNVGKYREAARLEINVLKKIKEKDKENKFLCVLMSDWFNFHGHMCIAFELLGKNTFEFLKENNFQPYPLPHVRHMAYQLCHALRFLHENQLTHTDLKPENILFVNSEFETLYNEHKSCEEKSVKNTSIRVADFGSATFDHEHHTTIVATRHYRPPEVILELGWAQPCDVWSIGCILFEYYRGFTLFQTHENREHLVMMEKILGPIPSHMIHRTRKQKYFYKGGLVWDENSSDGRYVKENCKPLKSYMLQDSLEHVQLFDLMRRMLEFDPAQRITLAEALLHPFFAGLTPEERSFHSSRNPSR
Sequence of CLK4 (O35493 whole entry): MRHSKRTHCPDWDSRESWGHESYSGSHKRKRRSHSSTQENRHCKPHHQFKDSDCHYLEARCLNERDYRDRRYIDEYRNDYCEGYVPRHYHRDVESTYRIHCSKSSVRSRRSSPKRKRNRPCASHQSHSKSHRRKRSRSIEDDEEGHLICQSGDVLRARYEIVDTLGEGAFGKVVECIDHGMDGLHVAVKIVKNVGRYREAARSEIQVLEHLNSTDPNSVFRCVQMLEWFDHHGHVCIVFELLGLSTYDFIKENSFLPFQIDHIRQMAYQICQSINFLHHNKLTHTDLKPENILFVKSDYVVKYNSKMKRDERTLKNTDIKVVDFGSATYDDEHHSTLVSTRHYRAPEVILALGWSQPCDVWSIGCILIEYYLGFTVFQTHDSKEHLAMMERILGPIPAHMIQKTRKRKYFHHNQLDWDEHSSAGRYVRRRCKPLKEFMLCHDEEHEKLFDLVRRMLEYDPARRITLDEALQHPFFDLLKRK
Sequence of LmCK1 (Q9NHE1 entry or part of it): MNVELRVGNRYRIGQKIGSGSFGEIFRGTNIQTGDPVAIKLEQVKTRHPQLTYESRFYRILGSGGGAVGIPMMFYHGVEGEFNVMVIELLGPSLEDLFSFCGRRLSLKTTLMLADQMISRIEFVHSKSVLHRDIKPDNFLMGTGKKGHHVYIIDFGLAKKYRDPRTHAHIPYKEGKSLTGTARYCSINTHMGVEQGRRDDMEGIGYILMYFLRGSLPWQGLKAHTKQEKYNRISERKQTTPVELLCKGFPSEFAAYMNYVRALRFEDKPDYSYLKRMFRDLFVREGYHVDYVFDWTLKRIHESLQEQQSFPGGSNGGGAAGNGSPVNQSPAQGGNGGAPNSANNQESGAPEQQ
Sequence of CLK1 (P22518 whole entry): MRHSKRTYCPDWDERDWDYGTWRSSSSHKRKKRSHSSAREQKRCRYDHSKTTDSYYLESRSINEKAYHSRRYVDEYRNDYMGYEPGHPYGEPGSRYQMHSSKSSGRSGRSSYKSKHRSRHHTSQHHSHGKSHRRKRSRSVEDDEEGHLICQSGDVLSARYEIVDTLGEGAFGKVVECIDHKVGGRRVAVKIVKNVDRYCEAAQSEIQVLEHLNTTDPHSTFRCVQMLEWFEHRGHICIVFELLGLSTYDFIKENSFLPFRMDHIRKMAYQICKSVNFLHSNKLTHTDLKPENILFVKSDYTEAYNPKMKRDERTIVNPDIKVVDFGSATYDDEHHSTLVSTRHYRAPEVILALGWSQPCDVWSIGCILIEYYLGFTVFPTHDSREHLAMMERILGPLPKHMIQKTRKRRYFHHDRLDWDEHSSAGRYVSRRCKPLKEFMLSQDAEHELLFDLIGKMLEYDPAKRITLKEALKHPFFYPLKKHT
Sequence of CLK2 (O35491 whole entry): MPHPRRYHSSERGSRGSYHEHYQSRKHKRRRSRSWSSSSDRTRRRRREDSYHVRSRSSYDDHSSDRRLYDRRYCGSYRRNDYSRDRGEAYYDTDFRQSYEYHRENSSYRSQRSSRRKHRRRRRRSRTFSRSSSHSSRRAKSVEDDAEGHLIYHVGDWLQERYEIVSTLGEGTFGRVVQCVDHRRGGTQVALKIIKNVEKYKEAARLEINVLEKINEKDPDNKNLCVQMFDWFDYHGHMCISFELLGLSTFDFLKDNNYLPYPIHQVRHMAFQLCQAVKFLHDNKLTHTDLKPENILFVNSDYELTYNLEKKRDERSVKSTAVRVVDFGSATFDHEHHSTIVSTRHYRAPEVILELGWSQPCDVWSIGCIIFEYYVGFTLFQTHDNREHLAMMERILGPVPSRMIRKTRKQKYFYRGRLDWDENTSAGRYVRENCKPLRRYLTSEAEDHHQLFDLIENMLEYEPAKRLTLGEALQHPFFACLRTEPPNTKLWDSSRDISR

For the molecule `CN(C)CCOc1ccc(C=C2N=C(N)NC2=O)cc1` [PAC6], the IC50 at CLK2 (setting [1]) was above 10000 nM; at CDK9/cyclin T (read-out: IC50 CDK9/cyclin T), above 10000 nM; against DYRK1A it was above 10000 nM; on GSK-3α/β, above 10 µM; on CDK1/cyclin B it was above 10 µM; against CK1δ/ε, above 10 µM. Also, the IC50 at CLK4 (setting [2]) is above 10000 nM; at CLK3 (setting [3]) it was above 10 µM; at CDK5/p25, above 10 µM; against DYRK1B, above 10000 nM; at DYRK3, above 10000 nM; at CLK1 (setting [4]), above 10000 nM. For the same molecule, the IC50 is above 10 µM on CDK2/cyclin A, above 10000 nM on DYRK2, above 10 µM on PfGSK-3 and above 10 µM on LmCK1.
Take `NC1=N/C(=C\c2ccc(O)c(O)c2)C(=O)N1` [PAC13, polyandrocarpamine B]: the IC50 at CLK2 (IC50 CLK2, 15 μmol/L ATP) is 2420 nM; at CDK9/cyclin T (IC50 CDK9/cyclin T), 1800 nM; against DYRK1A, 590 nM; against CLK4 (IC50 CLK4, 15 μmol/L ATP), 910 nM; against CLK3 (IC50 CLK3, 15 μmol/L ATP), 10 µM; at DYRK1B it was 960 nM. The IC50 was 680 nM on DYRK3 and 380 nM on DYRK2.
With `Cc1ccc(C=C2N=C(N)NC2=O)s1` [PAC10], the IC50 on CLK2 (setting [1]) is above 10000 nM; at CDK9/cyclin T (read-out: IC50 CDK9/cyclin T), above 10000 nM; against DYRK1A, 3000 nM; against GSK-3α/β it was above 10 µM; against CDK1/cyclin B it was above 10 µM; at CK1δ/ε it was above 10 µM. The IC50 at CLK4 (setting [2]) is above 10000 nM; on CLK3 (setting [3]), above 10 µM; at CDK5/p25 it was above 10 µM; at DYRK1B, above 10000 nM; at DYRK3, above 10000 nM; at CLK1 (setting [4]), above 10000 nM. In addition, the IC50 at CDK2/cyclin A was above 10 µM; on DYRK2, 3400 nM; on PfGSK-3, above 10 µM; on LmCK1, above 10 µM.
In the case of `COc1ccc(C=C2N=C(N)NC2=O)cc1F` [PAC4], the IC50 on CLK2 (setting [1]) was above 10000 nM; on CDK9/cyclin T (read-out: IC50 CDK9/cyclin T), above 10000 nM; at DYRK1A, 4000 nM; on GSK-3α/β, above 10 µM; against CDK1/cyclin B, above 10 µM; against CK1δ/ε, at least 10 µM. The IC50 at CLK4 (setting [2]) is at least 10000 nM; on CLK3 (setting [3]), above 10 µM; on CDK5/p25, above 10 µM; on DYRK1B, above 10000 nM; on DYRK3 it was 5100 nM; at CLK1 (setting [4]) it was at least 10000 nM. In addition, the IC50 is at least 10 µM on CDK2/cyclin A, 4500 nM at DYRK2, above 10 µM on PfGSK-3 and above 10 µM on LmCK1.
Turning to `NC1=N/C(=C\c2ccc(O)c(O)c2)C(=O)N1` [PAC2, polyandrocarpamine B], the IC50 at CLK2 (IC50 CLK2, 15 μmol/L ATP) was determined as 2500 nM; on CDK9/cyclin T (IC50 CDK9/cyclin T), 2000 nM; on DYRK1A it was 750 nM; on CLK4 (IC50 CLK4, 15 μmol/L ATP) it was 950 nM; against CLK3 (IC50 CLK3, 15 μmol/L ATP), 9.2 µM; against DYRK1B it was 1100 nM. The IC50 at DYRK3 amounted to 900 nM; on DYRK2, 480 nM.
As to `COc1cc(/C=C2\N=C(N)NC2=O)ccc1O` [PAC1, polyandrocarpamine A], the IC50 against CLK2 (IC50 CLK2, 15 μmol/L ATP) was 1200 nM; against CDK9/cyclin T (IC50 CDK9/cyclin T), 1100 nM; against DYRK1A it was 230 nM; on GSK-3α/β it was above 10 µM; against CDK1/cyclin B, above 10 µM; at CK1δ/ε (listed as 1), 5.2 µM. Also, the IC50 on CLK4 (IC50 CLK4, 15 μmol/L ATP) was determined as 400 nM; at CLK3 (IC50 CLK3, 15 μmol/L ATP), 2.3 µM; against DYRK1B it was 400 nM; on DYRK3 it was 280 nM; against CLK1 (IC50 CLK1, 15 μmol/L ATP) it was 430 nM; on DYRK2, 140 nM.
Take `COc1cc(/C=C2\N=C(N)NC2=O)ccc1O` [PAC12, polyandrocarpamine A]: the IC50 was determined as 640 nM against CLK2 (IC50 CLK2, 15 μmol/L ATP); 900 nM at CDK9/cyclin T (IC50 CDK9/cyclin T); 300 nM at DYRK1A; 5 µM at CK1δ/ε (listed as 12); 470 nM against CLK4 (IC50 CLK4, 15 μmol/L ATP); 2.7 µM on CLK3 (IC50 CLK3, 15 μmol/L ATP). The IC50 at DYRK1B was 470 nM; at DYRK3 it was 340 nM; against CLK1 (IC50 CLK1, 15 μmol/L ATP) it was 470 nM; on DYRK2 it was 240 nM.
